For assay [1], the system named is melanoma cell lines VMM1, DM13, DM93 and DM122. The experiment in a line: Intracellular staining of chemokines CCL2-5, CXCL9, CXCL12 by flow cytometry after overnight TLR agonist stimulation with or without IFNγ. It is filed as cell-based, human. As to conditions: TLR agonist alone. As to the method: (§1) Stained cells were collected on the FACSCalibur instrument (BD Biosciences) and analyzed with FlowJo 8.8.6 software (TreeStar, Ashland, Oreg.). Analyses were conducted on live cells (95%) as defined by forward and side-angle scatter. Gates were set based on isotype-matched (ISO) controls or fluorescence-minus-one (FMO) controls.
(§2) These were used with or without rh-IFNγ (1000 IU/mL; PeproTech). After stimulation, cells were detached using Accutase.
(§3) Cells were fixed and permeablilized using the BD Cytofix/Cytoperm kit and then stained with the indicated antibodies. Staining antibodies: CCL2-PE, CCL3-PE, CCL4-PE, CCL5-PE, CXCL10-PE (BD Pharmingen), CXCL9-PE, CXCL12-APC (R&D Systems), IgG1-PE, and IgG2α-PE (Caltag). Flow cytometric analyses were conducted as described.
For orientation: In flow cytometry, cells or beads pass a laser one at a time.

In assay [2] the test system is DM13 cells. In words: TLR agonist dose response assay, CXCL10 producing cells by flow cytometry, constant IFNγ. The assay is classed as cell-based, human. To be noted: for effect on CXCL10 induction: in the presence of IFNγ, even at much higher concentrations than in prior experiments; for optimal concentration for CXCL10 production: constant concentration of IFNγ. As to the method: FIGS. 3A-3D. […] Melanoma cells were analyzed for induced chemokine production after overnight stimulation with the indicated TLR agonists with (+) or without (−) IFNγ. FIG. 3A-FIG. 3B (12 panels/images each). […] Scale bars represent 100 μm. FIG. 3C. Graphic illustration of ELISA assays to detect CXCL10 from supernatants of stimulated melanoma cells DM13 (left) and VMM1 (right). FIG. 3D. TLR agonist dose response assay. […] Data are from 2 independent experiments.
as §2, §3

The test system of assay [3] is breast cancer cell lines. The experiment in a line: CXCL10 production by breast cancer cell lines, flow cytometry. The assay is classed as cell-based, human. As to conditions: n=4; printed 'LPS, PAM3CSK4, and MALP-2+IFNγ', +IFNγ may apply to all three.
Description: Breast cancer cells were stimulated with TLR agonists overnight alone or in combination with IFNγ (IFNγ stimulation indicated as +). CXCL10 production was assessed by flow cytometry from the indicated breast cancer cell lines (n=4).
Assay [4] relates to lung cancer cell lines. The experiment in a line: CXCL10 production by lung cancer cell lines, flow cytometry. To be noted: lung cancer cell lines n=8 (FIG. 16). It is filed as cell-based, human. As for the experimental part: FIG. 16 (line graph): Treatment of Lung Cancer cells with TLR1/2 agonists-TLR1/2 agonists can induce some CXCL10 production from lung cancer cell lines. Lung cancer cells were stimulated with TLR agonists overnight alone or in combination with IFNγ (IFNγ stimulation indicated as +). CXCL10 production was assessed by flow cytometry from the indicated lung cancer cell lines (n=8).

Assay [5] deals with melanoma cell lines VMM1, DM13, DM93 and DM122. In words: Intracellular CXCL10 staining by flow cytometry after overnight stimulation with TLR agonists with or without IFNγ. It is filed as cell-based, human. To be noted: averaged across the four melanoma lines, flow cytometry (FIG. 2B). As for the experimental part: as §1, §2, §3
In assay [6] the test system is 21 melanoma cell lines. In words: TLR2 and TLR6 staining by flow cytometry with or without IFNγ. It is filed as cell-based, human. As to conditions: IFNγ stimulation, data not shown. As to the method: Melanoma cell lines were seeded into 6-well plates at 1×10^6 cells/well in RPMI and stimulated overnight in the presence or absence of recombinant human IFNγ (rh-IFNγ, 1000 IU/mL; PeproTech, Rocky Hill, N.J.). After stimulation, cells were detached using Accutase (Millipore, Billerica, Mass.), stained with indicated antibodies and fixed using Cytofix (BD Biosciences, San Jose, Calif.). Surface staining antibodies: TLR2-Alexa647, Streptavidin-PE (BD Pharmigen, San Jose, Calif.), TLR6-Biotin (eBioscience, San Diego, Calif.), TLR4-APC (R&D Systems, Minneapolis, Minn.). Intracellular staining: cells were fixed and permeabilized using the BD Cytofix/Cytoperm kit (BD Biosciences) and stained with appropriate antibodies: TLR7-CFS, IgG2α-CFS (R&D Systems), TLR3-PE, TLR9-APC (eBioscience), TLR8-Alexa488 (Dendritics, San Diego, Calif.), IgG1-PE, and IgG2α-PE (Caltag, Towcester, UK).
as §1

Assay [7] deals with cells from freshly resected human melanoma metastases. In words: CXCL10 production by cells of freshly resected melanoma metastases, flow cytometry. It is filed as cell-based. As to conditions: patients 1-3 (FIG. 6A). The text has this: FIGS. 6A-6E. Patient melanomas generate CXCL10 in response to TLR2/6 agonist and IFNγ. […] Cell subsets were defined as: melanoma (CD45^negS100^+), endothelial (S100^negCD45^negCD105^+), B-cell (CD20^+), DC (CD11c^+HLADR^+), macrophage (CD14^+), NK-cell (CD56^+) and T-cell (CD3^+). FIG. 6A. The percent of melanoma cells that are CXCL10^+ from patient 1 (top), patient 2 (middle) and patient 3 (bottom) tumors after stimulation with the indicated conditions (left panel). MFI for CXCL10 expression of melanoma cells from patient 1 melanoma (top) and patient 2 melanoma (middle) patient 3 melanoma (bottom) (right panel). FIG. 6B-FIG. 6D. […] Graph of CXCL10 measured by ELISA assay, cells are from patient 1 tumor.
Having observed production of CCL3 and CXCL10 by cultured human melanoma cell lines in vitro, we asked whether the same would be observed with melanoma cells isolated from fresh surgically-excised human metastases. TLR2 and TLR6 are expressed on some immune cell subsets (31; 32), thus we also assessed whether TLR2/6 agonists and IFNγ may impact CXCL10 production from immune cell subsets in patient tumor specimens. […] The percentage of live cells from tumor assessed by viability marker were approximately 60%, 50%, 70%, and 40% for patients 1-4 respectively (data not shown).

Assay [8] concerns cells from fresh surgically isolated melanoma metastases. The experiment in a line: CXCL10 ELISA of supernatants of stimulated cells from fresh melanoma metastases. It is filed as cell-based, human. To be noted: patient 1 tumor (FIG. 6E). As for the experimental part:
Melanoma cell lines or cells from patient samples were stimulated with TLR agonists as described, but without GolgiStop. Media containing the cell-secreted chemokines were collected and centrifuged to remove cell debris. CXCL10 was measured using the BD OptEIA human IP-10 ELISA Set with BD OptEIA buffers (BD Biosciences).

For assay [9], the system named is melanoma cell lines VMM1, DM13, DM93 & VMM39. In words: Gene expression profiling (gene array) of melanoma cell lines after IFNγ or TLR2/6 agonist + IFNγ. To be noted: Vs No treatment; Anova p≤0.005, matched comparisons. It is filed as cell-based, human. As to the method:
To assess global effects of TLR2/6 agonists and IFNγ stimulation on melanoma, gene expression profiling of melanoma cell lines was performed.

`CC(C)Cn1cnc2c(N)nc3ccccc3c21` [imiquimod]: the chemokine production result in assay [1] is “little chemokine production”. Further, in assay [2], the “effect on CXCL10 induction” value was “little effect”.
Turning to Pam3CysSerLys4 [Pam3CSK4], the “cell lines with induced CXCL10 production” value in assay [3] is recorded as 2/4. In addition, the CXCL10 production entry in assay [4] was “some CXCL10 production can be induced”.
In the case of “fibroblast-stimulating lipopeptide-1 [FSL-1]”, the chemokine production entry in assay [1] is “little chemokine production”. The “optimal concentration for CXCL10 production” value in assay [2] was 5 µg/mL.
Turning to “interferon gamma [IFNγ, recombinant human IFNγ (PeproTech), used at 1000 IU/mL]”, the “percent of cells producing CXCL10” value in assay [5] was 7%. Also, in assay [6], the “expression of TLR2 or TLR6” value is on record as “neither was impacted”. Besides, in [7], the “CXCL10 production by melanoma cells (S100+CD45neg), percentage of CXCL10+ cells and MFI” value is on record as “produced CXCL10”. For the same molecule, the CXCL10 in supernatants in assay [8] was around 400 pg/mL. In addition, in assay [9], the “fold change of gene induction, CXCL9” value came to 20.7 fold change; the “fold change of gene induction, CXCL10” value is 36.5 fold change; the “fold change of gene induction, GBP1” value is 50.6 fold change; the “fold change of gene induction, GBP4” value was 84.9 fold change. In assay [9], the “fold change of gene induction, IFI30” value is listed as 14.4 fold change; the “fold change of gene induction, IFITM1” value is 14.4 fold change; the “fold change of gene induction, IRF1” value is on record as 30.2 fold change; the “fold change of gene induction, OAS2” value is recorded as 24.1 fold change. Further, in assay [9], the “fold change of gene induction, TNFSF10” value worked out at 25.7 fold change and the “fold change of gene induction, XAF1” value is listed as 22.8 fold change.
As for lipopolysaccharide [LPS], the chemokine production entry in [1] was “little chemokine production”. For the same molecule, the “concentration inducing CXCL10 at levels comparable to MALP-2 or FSL-1 and IFNγ” value in assay [2] (+IFNγ (FIG. 3D)) was 100 µg/mL. Besides, the “concentration inducing comparable levels of CXCL10” value in assay [2] (in combination with IFNγ, compared with TLR2/6 agonists) is at least 100 µg. For the same molecule, the “cell lines with induced CXCL10 production” value in assay [3] is on record as 2/4.
Regarding “macrophage-activating lipopeptide 2 [MALP-2]”, in assay [1], the chemokine production result is reported as “little chemokine production”. Moreover, the “optimal concentration for CXCL10 production” value in assay [2] stood at 0.1 µg/mL.
As for poly-ICLC, the chemokine production result in assay [1] is “little chemokine production”. Also, the “effect on CXCL10 induction” value in assay [2] is reported as “little effect”.

Source of the values: patent US11633458B2, “Compositions and methods for treating melanoma” (University of Virginia Patent Foundation, priority 2013, dated 2023).
